From the NIST ThermoML archive (doi:10.1021/acs.jced.5b00796)
± gives the expanded uncertainty stated by the source.

Details: Liquid, Ebulliometric method (Recirculating still)

Structure (SMILES)	vapor or sublimation pressure (354.25 K) [kPa]	vapor or sublimation pressure (337.85 K) [kPa]
CC#N [acetonitrile]	101.32 ± 1	–
CO [methanol]	–	101.32 ± 1
